# In ChEMBL document CHEMBL1201862, “PubChem BioAssay data set” (2004):
#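 48-hour exposure; five concentrations; linearly interpolated endpoints. GI50 = concentration required for 50% inhibition of growth.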 Calls of active or inactive are those of the source. Cut-off read from the data, not from the text of the source: active = GI50 up to about 1.1 µM and inactive = higher.
# What was measured:
# Experiment in all cases: inhibition of tumour cell growth, NCI panel, 48 h
# NCI-H226 = test system: NCI-H226
# SK-MEL-28 = test system: SK-MEL-28
# NCI-H460 = test system: NCI-H460
# 786-0 = test system: 786-0
# NCI-H23 = test system: NCI-H23
# KM12 = test system: KM12
# MOLT-4 = test system: MOLT-4
# UACC-257 = test system: UACC-257
# SF-295 = test system: SF-295
# IGROV-1 = test system: IGROV-1
# HOP-62 = test system: HOP-62
# SK-MEL-5 = test system: SK-MEL-5
# A498 = test system: A498
# OVCAR-3 = test system: OVCAR-3
# HCT-116 = test system: HCT-116
# EKVX = test system: EKVX
# MDA-MB-435 = test system: MDA-MB-435
# Hs-578T = test system: Hs-578T
# MDA-MB-231 = test system: MDA-MB-231
SMILES,GI50 (NCI-H226),GI50 (SK-MEL-28),GI50 (NCI-H460),GI50 (786-0),GI50 (NCI-H23),GI50 (KM12),GI50 (MOLT-4),GI50 (UACC-257),GI50 (SF-295),GI50 (IGROV-1),GI50 (HOP-62),GI50 (SK-MEL-5),GI50 (A498),GI50 (OVCAR-3),GI50 (HCT-116),GI50 (EKVX),GI50 (MDA-MB-435),GI50 (Hs-578T),GI50 (MDA-MB-231)
Cn1c(O)c(C(=O)NC2CCCCC2)c(=O)n(C)c1=S,8.57 µM (inactive),4.61 µM (inactive),6.1 µM (inactive),6.15 µM (inactive),4.4 µM (inactive),9.66 µM (inactive),3.56 µM (inactive),6.27 µM (inactive),3.23 µM (inactive),4.89 µM (inactive),4.85 µM (inactive),5.05 µM (inactive),4.44 µM (inactive),4.93 µM (inactive),–,–,–,–,–
COCN1COCN/C1=N\C#N,> 100 µM (inactive),> 100 µM (inactive),> 100 µM (inactive),> 100 µM (inactive),> 100 µM (inactive),> 100 µM (inactive),> 100 µM (inactive),> 100 µM (inactive),> 100 µM (inactive),> 100 µM (inactive),> 100 µM (inactive),> 100 µM (inactive),> 100 µM (inactive),> 100 µM (inactive),> 100 µM (inactive),> 100 µM (inactive),–,–,–
COC(=O)C(=O)Cc1nc2ccccc2s1,> 100 µM (inactive),> 100 µM (inactive),–,> 100 µM (inactive),> 100 µM (inactive),–,> 100 µM (inactive),> 100 µM (inactive),> 100 µM (inactive),> 100 µM (inactive),> 100 µM (inactive),> 100 µM (inactive),> 100 µM (inactive),> 100 µM (inactive),> 100 µM (inactive),> 100 µM (inactive),–,–,–
Cc1c(/C=N/NS(=O)(=O)c2ccccc2)no[n+]1[O-],–,> 100 µM (inactive),–,> 100 µM (inactive),> 100 µM (inactive),> 100 µM (inactive),> 100 µM (inactive),–,> 100 µM (inactive),> 100 µM (inactive),–,> 100 µM (inactive),> 100 µM (inactive),> 100 µM (inactive),> 100 µM (inactive),> 100 µM (inactive),–,–,–
CC(=O)Nc1ccc(S(=O)(=O)Nc2nc(-c3ccc(Cl)cc3)cc(N3N=C(c4ccc(Br)cc4)CC3c3ccccc3)n2)cc1 (centres undefined),12.9 µM (inactive),18.6 µM (inactive),16.9 µM (inactive),18.8 µM (inactive),16.6 µM (inactive),10.7 µM (inactive),17 µM (inactive),17.5 µM (inactive),16.6 µM (inactive),11.8 µM (inactive),16.3 µM (inactive),–,–,2.06 µM (inactive),14.4 µM (inactive),13.6 µM (inactive),7.45 µM (inactive),11.1 µM (inactive),13.9 µM (inactive)
COC(=O)C(=O)C(C(=O)C=C(C)C)C(=O)C(=O)Nc1cccc(C(C)=O)c1 (centres undefined),> 100 µM (inactive),> 100 µM (inactive),> 100 µM (inactive),> 100 µM (inactive),> 100 µM (inactive),> 100 µM (inactive),> 100 µM (inactive),> 100 µM (inactive),> 100 µM (inactive),> 100 µM (inactive),> 100 µM (inactive),> 100 µM (inactive),> 100 µM (inactive),> 100 µM (inactive),> 100 µM (inactive),> 100 µM (inactive),–,–,–
CC[C@]1(O)C[C@H]2CN(CCc3c([nH]c4ccccc34)[C@@](C(=O)OC)(c3cc4c(cc3OC)N(C)[C@H]3[C@@](O)(C(=O)OC)[C@H](OC(C)=O)[C@]5(CC)C=CCN6CC[C@]43[C@@H]65)C2)C1,0.00115 µM (active),0.00165 µM (active),0.000629 µM (active),0.000964 µM (active),0.000678 µM (active),0.000493 µM (active),0.000736 µM (active),–,0.000492 µM (active),0.00129 µM (active),0.000832 µM (active),0.000354 µM (active),0.00252 µM (active),0.00038 µM (active),0.000481 µM (active),0.0259 µM (active),0.000386 µM (active),–,0.000991 µM (active)
CC(=O)OC[C@]1(C)CCCC2(C)C1CCC1C=C(C)[C@H]3CCC12C3 (some centres undefined),> 100 µM (inactive),60.5 µM (inactive),33.7 µM (inactive),66.2 µM (inactive),94.4 µM (inactive),52.6 µM (inactive),> 100 µM (inactive),61.7 µM (inactive),35 µM (inactive),> 100 µM (inactive),50.9 µM (inactive),> 100 µM (inactive),–,61.4 µM (inactive),47.4 µM (inactive),–,–,–,–
CCNc1nnc(CSc2nc(-c3ccccc3)c(-c3ccccc3)[nH]2)s1,13.4 µM (inactive),14.6 µM (inactive),24.9 µM (inactive),24.4 µM (inactive),26.1 µM (inactive),9.38 µM (inactive),20.5 µM (inactive),17.3 µM (inactive),17.7 µM (inactive),–,19.9 µM (inactive),11.8 µM (inactive),–,20.6 µM (inactive),22 µM (inactive),14.3 µM (inactive),–,–,–
